The nature of this series: gradient 5% acetonitrile 3 min, to 50% in 2 min, to 85% in 15 min, held 3 min, 100 µL/min. Particulars: column: Zorbax Extend-C18 2.1 x 50 mm; eluents: water / acetonitrile, 0.1% formic acid. The essentials:
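Over 3 months, pure standards in mixtures of ~100 molecules were run by HPLC coupled to a quadrupole time-of-flight mass spectrometer in positive and negative ionization mode. The column was a Zorbax Extend-C18 (2.1 × 50 mm, 1.8 μm) at 100 μL/min, eluted with water and acetonitrile each holding 0.1% formic acid, with 40 μL dead and 900 μL dwell volumes. Retention time was determined from adduct peaks chosen by software and checked manually.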
`COc1cc(OC)c(NC(=O)NC2(c3nc(C)no3)CCCCC2)cc1Cl`: the RP-LC retention time came out at 858 s.

`CCN1CCN(c2cc(C(=O)O)c3cc(NC(=O)C4CCC4)ccc3n2)CC1` came in with an RP-LC retention time of 565 s.

Regarding `O=C(Nc1ccc(Nc2cc(-n3ccnc3)ncn2)cc1)c1c[nH]c2ccccc12`, the RP-LC retention time stood at 562 s.

In the case of `COc1ccc(C(=O)N2C[C@@H]3C[C@H]2C[C@@H]3NC(=O)c2cccs2)c(C)c1`, the RP-LC retention time is 741 s.

For `CCOc1cc(C(=O)N2CCCC2c2nc(-c3ccc(OC)cc3)no2)cc(OCC)c1OCC` (centres undefined), the RP-LC retention time stood at 1080 s.

`O=C(c1cc(C2CC2)[nH]n1)N1CC(n2cc(COCc3ccccc3)nn2)C1` yielded an RP-LC retention time of 730 s.

Regarding `O=C(NCc1ccc(N2CCOCC2)cc1)c1cn2c(n1)CSCC2`, the RP-LC retention time turned out to be 604 s.

Turning to `C=Cc1ccc(Cn2nc3c(S(=O)(=O)N4CCN(c5ccc(F)cc5)CC4)cccn3c2=O)cc1`, the RP-LC retention time stood at 1010 s.

Regarding `COc1ccc(Cl)cc1NC(=O)c1cc2c(=O)oc3ccccc3c2n1C`, the RP-LC retention time came to 1110 s.

`O=C(NCc1cccs1)c1cccc2c1CCN2C(=O)c1ccc(F)cc1` registered an RP-LC retention time of 858 s.

With `COC(=O)c1c(NCCc2ccc(Cl)cc2)c2ccc(F)cc2[nH]c1=O`, the RP-LC retention time was determined as 795 s.

As for `Cc1cccc2nc(-c3c(F)cccc3Cl)c(Nc3ccc4c(c3)OCO4)n12`, the RP-LC retention time worked out at 697 s.

For `CC(C)CNC(=O)N1CCn2nnc(CCC(=O)N3CCOCC3)c2C1`, the RP-LC retention time was determined as 604 s.

On to `O=C(NCc1nc(-c2ccc(NS(=O)(=O)c3ccc(F)cc3)cc2)no1)c1cccs1`, for which the RP-LC retention time turned out to be 867 s.

On to `Cc1ccc(CNC(=O)c2cnc(-c3ccccc3)nc2-c2ccncc2)cc1C`, for which the RP-LC retention time was 916 s.

Take `Cc1ccc(-c2nc(-c3ccc(S(=O)(=O)N4CCCC4)cc3)no2)cc1F`: the RP-LC retention time amounted to 1260 s.

In turn, `COc1ccccc1N1CCN(CCCNc2c(C)c(=O)n(C)c(=O)n2C)CC1` registered an RP-LC retention time of 646 s.

`COc1ccc(C2Cn3nnc(-c4nc(-c5ccccc5C)no4)c3CO2)cc1` (centres undefined) returned an RP-LC retention time of 1200 s.

For the compound `Cc1ccc2cc(CCC(=O)NCCN3CCN(C)CC3)c(=O)[nH]c2c1`, the RP-LC retention time was determined as 559 s.

Regarding `Cc1sc(NC(=O)c2ccc(Cl)cc2)nc1-c1ccc2c(c1)NC(=O)C(C)O2` (centres undefined), the RP-LC retention time stood at 968 s.

`CCCn1cc(C2=CCN(S(=O)(=O)c3ccc(F)c(Cl)c3)CC2)c2cccnc21` returned an RP-LC retention time of 1190 s.

`Cc1ccc2c(C(=O)Nc3ccc(N4CCOCC4)cc3)cc(NC(=O)C3CCC3)cc2n1`: the RP-LC retention time was found to be 630 s.

Compound `Cn1cc(CC(=O)NCc2cc(F)ccc2F)c2cccnc21` yielded an RP-LC retention time of 683 s.

The compound `O=C(CN1C(=O)CCCc2cc(S(=O)(=O)N3CCCCC3)ccc21)Nc1ccc(Cl)cc1` returned an RP-LC retention time of 990 s.

`CSc1cccc(NC(=O)N2CCCC2c2nc(-c3ccc(F)cc3)no2)c1` (centres undefined) gave an RP-LC retention time of 1040 s.

On to `Cc1nc(-c2noc(-c3ccncc3)n2)cn1CC(=O)Nc1ccc(F)cc1`, for which the RP-LC retention time was determined as 833 s.

Take `O=C(Nc1cccc(OCc2nnc(-c3ccccc3)o2)c1)c1cccnc1`: the RP-LC retention time is 750 s.

`Cc1nc(-c2ccccc2)cc2nn(CC(=O)N3CCC(C)CC3)c(=O)n12` returned an RP-LC retention time of 903 s.

In turn, `CN(C)c1ccc(/C=C2\CCc3ccccc3C2=O)cc1Br` yielded an RP-LC retention time of 1260 s.

`CC(=O)Nc1ccc(-n2cnc(C(=O)N3CCN(C4CCCCC4)CC3)c2)nc1` had an RP-LC retention time of 566 s.

Compound `Cc1ccc2nc(-c3ccc(Cl)cc3)c(Nc3ccc(Cl)cc3)n2c1` yielded an RP-LC retention time of 831 s.

The compound `CC1CCC2(CC1)NC(=O)N(CC(=O)NCCc1ccc(Cl)cc1)C2=O` (centres undefined) gave an RP-LC retention time of 863 s.

`Cc1ccccc1NC(=O)CSc1nnc2c3cc(-c4ccc(F)cc4)nn3ccn12` returned an RP-LC retention time of 897 s.

As for `CC(C)(C)c1noc(-c2ccnc(-n3cnc(C(=O)N4CCCCCC4)c3)c2)n1`, the RP-LC retention time amounted to 998 s.

Turning to `O=C(Nc1ccccc1)OC1CCCC(NC(=O)C2(c3ccccc3)CCOCC2)C1` (centres undefined), the RP-LC retention time is 857 s.

In turn, `O=C(Nc1cccc(-c2ccc(N3CCOCC3)nn2)c1)Nc1ccccc1Cl` yielded an RP-LC retention time of 730 s.

Compound `COc1ccc(N2CCN(C(=O)C3CCCN(c4cc(=O)n(C)c(=O)n4C)C3)CC2)cc1` (centres undefined) yielded an RP-LC retention time of 696 s.

The compound `Cc1ccc(CNC(=O)C2CCN(S(=O)(=O)c3cn(C)cn3)CC2)cc1` yielded an RP-LC retention time of 732 s.

`COC1CCC12CCN(C(=O)C1CC1)CC2` (centres undefined) gave an RP-LC retention time of 710 s.

`Cc1cc(C)nc(SCC(=O)Nc2ncc(Cc3ccc(Cl)cc3)s2)n1` yielded an RP-LC retention time of 942 s.

In turn, `CN(Cc1ccco1)C(=O)c1nc2ccccn2c1-c1ccc(F)cc1` yielded an RP-LC retention time of 705 s.

For `CC1CCc2onc(C(=O)N(C)Cc3ccccc3)c2C1` (centres undefined), the RP-LC retention time is 1020 s.

Consider `COc1ccc(-c2ccc(/C=C3/SC(N4CCCCC4)=NC3=O)o2)cc1`, for which the RP-LC retention time was found to be 1020 s.

For `O=C(Cn1c(=O)c2cc(-c3cccs3)nn2c2ncccc21)NCc1ccc(F)cc1`, the RP-LC retention time is 821 s.

In turn, `O=C(NCc1ccc(F)cc1)c1ccc2c(c1)Sc1ncccc1C(=O)N2C1CC1` returned an RP-LC retention time of 791 s.

In turn, `CC(NS(=O)(=O)c1cccc(Cl)c1)C(=O)Nc1ccc(Br)cc1F` (centres undefined) came in with an RP-LC retention time of 912 s.

With `CC1CCN(C(=O)CN2C(=O)CCCc3cc(S(=O)(=O)N4CCC(C)CC4)ccc32)CC1`, the RP-LC retention time amounted to 987 s.

The compound `Cn1nnnc1NCc1ccc(-c2cccc(Cl)c2)o1` came in with an RP-LC retention time of 826 s.

`COc1ccccc1N1CCN(CCNS(=O)(=O)c2ccc(F)c(C)c2)CC1` had an RP-LC retention time of 608 s.

With `Cc1nn(-c2ccc(Cl)cc2)c(C)c1S(=O)(=O)Nc1ccc(S(N)(=O)=O)cc1`, the RP-LC retention time was 812 s.

`CC(=O)N1CCN(c2ncc(C(=O)Nc3ccccc3)c(N)n2)CC1`: the RP-LC retention time was 607 s.

`Cc1ccc2c(c1)N(S(C)(=O)=O)CCC(C(=O)NC1CCCCCCC1)O2` (centres undefined) showed an RP-LC retention time of 1050 s.

`CN(CC1CCOC1)C(=O)Nc1cc(F)cc(F)c1` (centres undefined) registered an RP-LC retention time of 744 s.

The compound `CCOCCCNC(=O)C1CCN(c2nc3cccnc3s2)CC1` showed an RP-LC retention time of 654 s.

As for `COc1ccc(Cl)cc1NC(=O)CN1C(=O)NC2(CCCCC2C)C1=O` (centres undefined), the RP-LC retention time was 838 s.

The compound `O=C(NCCc1c[nH]c2ccc(F)cc12)c1ccc(F)cc1` displayed an RP-LC retention time of 831 s.

For `Cc1cccc(NC(=O)N2CCc3[nH]cnc3C2c2ccncc2)c1C` (centres undefined), the RP-LC retention time is 546 s.

`CCOC(=O)Cc1csc(NC(=O)c2cc(=O)c(OCc3ccccc3)c[nH]2)n1`: the RP-LC retention time was 797 s.

As to `Cc1cccc(NC(=O)N2CCCC2c2cc(C)no2)c1` (centres undefined), the RP-LC retention time worked out at 780 s.

In turn, `O=C(c1cc(-c2ccc3c(c2)OCO3)nc2ccccc12)N1CCN(c2ccccn2)CC1` came in with an RP-LC retention time of 674 s.

Compound `Cc1nc2cc(-c3noc(CNC(=O)Cc4ccccc4)n3)ccc2o1` gave an RP-LC retention time of 780 s.

`CCOC(=O)C1CCN(C(=O)C(C)n2c(=O)c(C(F)(F)F)nc3ccccc32)CC1` (centres undefined) registered an RP-LC retention time of 921 s.

`Cc1nnc2cc(N3CCN(C(=O)Nc4cccc(Br)c4)CC3)cnn12`: the RP-LC retention time stood at 562 s.

`COc1ccc(CNC(=O)C2(C)Cn3cnc(C(=O)N4CCc5ccccc54)c3C(=O)N2C2CC2)cc1` (centres undefined) showed an RP-LC retention time of 741 s.

`CCOc1cccc(CNC(=O)CCc2nnc3c4cc(-c5ccccc5)nn4ccn23)c1` yielded an RP-LC retention time of 766 s.

Compound `O=C(C1CCC(=O)N1S(=O)(=O)c1ccccc1)N1CCCCC1` (centres undefined) registered an RP-LC retention time of 757 s.

`Cc1ccc(CN2CCC(CNC(=O)c3ccc4c(c3)NC(=O)C3CCCCN43)CC2)cc1` (centres undefined) showed an RP-LC retention time of 638 s.

Compound `COCCNC(=O)C1CCN(c2cncnc2N2CCCCC2)CC1` displayed an RP-LC retention time of 588 s.

Consider `CCc1nn(CC(=O)N2CCN(c3ncccn3)CC2)c(=O)c2cc3sccc3n12`, for which the RP-LC retention time worked out at 730 s.

Turning to `CC(=O)c1cccc(NC(=O)c2cccc(Br)c2)c1`, the RP-LC retention time turned out to be 840 s.

`Cc1cc(-c2ccc(S(=O)(=O)N3CCC(C(=O)NCc4ccccc4)CC3)o2)n[nH]1` returned an RP-LC retention time of 764 s.

Consider `O=C(CC(=O)Nc1ccc(F)cc1Cl)Nc1ccc2nc3n(c(=O)c2c1)CCCCC3`, for which the RP-LC retention time is 814 s.

For the compound `CS(=O)(=O)Nc1ccc(C2(C(=O)NCc3ccccc3F)CCCCC2)cc1`, the RP-LC retention time came out at 904 s.

Compound `CCc1nc2c(c(=O)n1CC(=O)NC(C)(C)C)CN(Cc1ccccc1)CC2` registered an RP-LC retention time of 605 s.

On to `CCOc1ccc(CN2C[C@@H]3C(=O)N(CCN4CCc5ccccc5C4)C(=O)[C@@H]3C2)cc1`, for which the RP-LC retention time came out at 598 s.

On to `Cc1ccc(=O)n(CCNC(=O)c2cc(C)oc2C)n1`, for which the RP-LC retention time turned out to be 616 s.

On to `O=c1cc[nH]c2c(C(F)(F)F)cccc12`, for which the RP-LC retention time was found to be 609 s.

In the case of `COc1ccc(-c2c(C)noc2NC(C)=O)cc1S(=O)(=O)Nc1c(C)cc(C)cc1C`, the RP-LC retention time worked out at 838 s.

Consider `Cc1nc2cc(-c3noc(-c4ccccc4Br)n3)ccc2n(C)c1=O`, for which the RP-LC retention time was 948 s.

The record behind these values is the METLIN SMRT retention time set (Domingo-Almenara et al. 2019).
